Consider eleven molecules from US12070457B2, “Substituted pyridines, pyridazines, pyrimidines, and 1,2,3-triazines as bruton's tyrosine kinase inhibitors” (HUTCHISON MEDIPHARMA LIMITED, priority 2020, dated 2024).

Data set [1] is described as follows: Stability test in liver microsomes (rat). Type of data set: in vitro ADME. The settings on record: 1 μM compound; for stability in rat liver microsomes compared with reference GDC-0853: 0.5 mg/mL liver microsomes, 30 minutes incubation; for RLM, percentage of remaining compound after 30 minutes of incubation: rat liver microsomes. The text has this: (§1) Example 5 Stability Test in Liver Microsomes
(§2) Both male CD-1 mouse pooled liver microsomes and male SD rat pooled liver microsomes were purchased from BioreclamationIVT Corporation, USA.
(§3) Phenacetin, glucose-6-phosphate dehydrogenase (G-6-PDH) and nicotinamide adenine dinucleotide phosphate (NADP) were all purchased from Sigma-Aldrich Corporation, USA. Glucose-6-phosphate (G-6-P) was purchased from Shanghai Eybridge Chemical Technology Co., Ltd.
(§4) Ten mM test compound stock solution: a certain amount of test compound was weighed, and dissolved with an appropriate volume of DMSO to prepare a stock solution with a concentration of 10 mM for use.
(§5) Reaction stopping solution: an appropriate amount of internal standard compound phenacetin was dissolved in acetonitrile to prepare a reaction stopping solution with a concentration of 1000 ng/mL for use at room temperature.
(§6) The test compound stock solution was diluted with an organic solvent (usually a mixture of acetonitrile, methanol and water with various ratios, depending on the solubility of the compound, if necessary, 1 N hydrochloric acid or 1 N sodium hydroxide would be added to facilitate solubilization) to the 0.1 mM (the final concentration of the compound in the reaction system was 1 μM) and the concentration percentage of the organic solvents in the incubation system no more than 1% (wherein the percentage of DMSO was required to be no more than 0.1%). An appropriate amount of 100 mM NADP, 500 mM G-6-P and 100 Unit/mL G-6-PDH were mixed and diluted with ultrapure water (the final system contains 1 mM NADP, 5 mM G-6-P and 1 Unit/mL G-6-PDH), pre-incubated in a 37° C. water bath for 10 minutes and then placed on ice for use as a NADPH regeneration solution. 20 mg/mL liver microsomes solution and 200 mM phosphate buffer was mixed, and diluted with ultrapure water to give a liver microsomes solution containing 2.5 mg/mL liver microsomes (the final concentration of the reaction system is 0.5 mg/mL) and 50 mM phosphate buffer. The diluted liver microsomes solution was mixed with 0.1 mM compound solution, a mixture of 100 mM EDTA, 300 mM MgCl2 solution, 200 mM phosphate buffer (the final system was 3 mM MgCl2, 1 mM EDTA and 50 mM phosphate buffer) and water in an appropriate volume was added. Finally, the NADPH regeneration solution was added, then the reaction solution was placed in a 37° C. water bath to start the reaction (the reaction time was 30 minutes), and the reaction was stopped by adding the ice-cold acetonitrile reaction stopping solution containing the internal standard. The 0-minute sample was not incubated in a 37° C. water bath, and its difference from the 30-minute sample further lies in that the ice-cold acetonitrile reaction stopping solution containing the internal standard was added first, and then the NADPH regeneration solution was added. The sample added with the reaction stopping internal standard solution was vortexed and mixed well, and then centrifuged at 4400 rpm for 10 minutes. The supernatant was taken and diluted ten times with 50% methanol for LC-MS/MS analysis.
(§7) LC-MS/MS was used to determine the concentration of the compound in the sample. The percentage of the remaining compound after 30 minutes of incubation comparing with that in the 0-minute sample was calculated using the peak area ratio of the compound to the internal standard as an indicator, to evaluate the metabolic stability of the compound.
(§8) Instrument: API4500, API4000 or LTQ Mass Spectrometer; the liquid phase is UHPLC system (Shimadzu LC-30 AD, model Nexra X2) including liquid delivery unit, column thermostat, detector and autosampler; or Agilent 1200 Binary Pump series HPLC and CTC Autosampler.
(§9) Chromatographic column: Waters XSELECT Hss T3 C18 (2.5 μm, 2.1×50 mm) or […] (5 μm, 2.0×50 mm)
(§10) Mobile phase: • A: water with 0.1% FA (formic acid) (with or without 0.1% ACN (acetonitrile)) • B: acetonitrile with 0.1% FA (formic acid).

Data set [2] can be described thus: Stability test in liver microsomes (mouse). The settings on record: 1 μM compound; for stability in mouse liver microsomes compared with reference GDC-0853: 0.5 mg/mL liver microsomes, 30 minutes incubation; for MLM, percentage of remaining compound after 30 minutes of incubation: mouse liver microsomes. Type of data set: in vitro ADME.
Text: as §1, §2, §3, §4, §5, §6, §7, §8, §9, §10

Consider `C[C@H]1CN(C2COC2)CCN1c1ccc(Nc2cc(-c3ccnc(-n4cnn5c6c(cc5c4=O)CC(C)(C)C6)c3CO)cn(C)c2=O)nc1` [Compound 63], for which, in data set [1], the “stability in rat liver microsomes compared with reference GDC-0853” value is “better than that of the reference GDC-0853” and the “RLM, percentage of remaining compound after 30 minutes of incubation” value (shortened to “RLM, percentage of remaining compound”) stood at 89.6%. For the same molecule, in data set [2], the “stability in mouse liver microsomes compared with reference GDC-0853” value is recorded as “better than that of the reference GDC-0853” and the “MLM, percentage of remaining compound after 30 minutes of incubation” value (“MLM, percentage of remaining compound” for short) stood at 85.8%.
For the molecule `CC1CCc2cc3c(=O)n(-c4nccc(-c5cc(Nc6ccc(N7CCN(C8COC8)C[C@@H]7C)cn6)c(=O)n(C)c5)c4CO)ccn3c2C1` (mixture of isomers) [Compound 78], in data set [1], the “stability in rat liver microsomes compared with reference GDC-0853” value is listed as “better than that of the reference GDC-0853” and the “RLM, percentage of remaining compound” value is 91.8%. Besides, in data set [2], the “stability in mouse liver microsomes compared with reference GDC-0853” value is recorded as “better than that of the reference GDC-0853” and the “MLM, percentage of remaining compound” value is 83.4%.
Regarding `Cn1cc(-c2ccnc(-n3ccn4c5c(cc4c3=O)CC(C)(C)C5)c2CO)cc(Nc2ccc(N3CCN(C4COC4)CC3)cn2)c1=O` [Compound 9], in data set [1], the “stability in rat liver microsomes compared with reference GDC-0853” value was “better than that of the reference GDC-0853” and the “RLM, percentage of remaining compound” value is given as 89.5%. Besides, in data set [2], the “stability in mouse liver microsomes compared with reference GDC-0853” value is “better than that of the reference GDC-0853” and the “MLM, percentage of remaining compound” value came to 95.7%.
For the molecule `C[C@H]1CN(C2COC2)CCN1c1ccc(Nc2cc(-c3ccnc(-n4ccn5c6c(cc5c4=O)CCC6)c3CO)cn(C)c2=O)nc1` [Compound 64], in data set [1], the “stability in rat liver microsomes compared with reference GDC-0853” value is recorded as “better than that of the reference GDC-0853” and the “RLM, percentage of remaining compound” value came out at 92.1%. Further, in data set [2], the “stability in mouse liver microsomes compared with reference GDC-0853” value is “better than that of the reference GDC-0853” and the “MLM, percentage of remaining compound” value amounted to 95.6%.
For `C[C@H]1CN(C2COC2)CCN1c1ccc(Nc2cc(-c3ccnc(-n4ccn5c6c(cc5c4=O)CCC(F)(F)C6)c3CO)cn(C)c2=O)nc1` [Compound 56], in data set [1], the “stability in rat liver microsomes compared with reference GDC-0853” value was “better than that of the reference GDC-0853” and the “RLM, percentage of remaining compound” value is 93.7%. Besides, in data set [2], the “stability in mouse liver microsomes compared with reference GDC-0853” value is recorded as “better than that of the reference GDC-0853” and the “MLM, percentage of remaining compound” value is 89.5%.
Consider `C[C@@H]1CN(c2ccc(Nc3cc(-c4ccnc(-n5ccn6c7c(cc6c5=O)CCC7)c4CO)cn(C)c3=O)nc2)[C@@H](C)CN1C1COC1` [Compound 2, 2-(5-((5-((2S,5R)-2,5-dimethyl-4-(oxetan-3-yl)piperazin-1-yl)pyridin-2-yl)amino)-3′-(hydroxymethyl)-1-methyl-6-oxo-1,6-dihydro-[3,4′-bispyridin]-2′-yl)-7,8-dihydro-2H-cyclopenta[4,5]pyrrolo[1,2-α]pyrazin-1(6H)-one], for which, in data set [1], the “stability in rat liver microsomes compared with reference GDC-0853” value is recorded as “better than that of the reference GDC-0853” and the “RLM, percentage of remaining compound” value was 98.9%. In addition, in data set [2], the “stability in mouse liver microsomes compared with reference GDC-0853” value is given as “better than that of the reference GDC-0853” and the “MLM, percentage of remaining compound” value amounted to 90.5%.
`C[C@H]1CN(C2COC2)CCN1c1ccc(Nc2cc(-c3ccnc(-n4ccn5c(cc6ccccc65)c4=O)c3CO)cn(C)c2=O)nc1` [Compound 74]: in data set [1], the “stability in rat liver microsomes compared with reference GDC-0853” value was “better than that of the reference GDC-0853” and the “RLM, percentage of remaining compound” value worked out at 87.7%. In data set [2], the “stability in mouse liver microsomes compared with reference GDC-0853” value was “better than that of the reference GDC-0853” and the “MLM, percentage of remaining compound” value came to 97.5%.
With `C[C@H]1CN(C2COC2)CCN1c1ccc(Nc2cc(-c3ccnc(-n4ccn5c(cc6cc(F)ccc65)c4=O)c3CO)cn(C)c2=O)nc1` [Compound 75], in data set [1], the “stability in rat liver microsomes compared with reference GDC-0853” value is recorded as “better than that of the reference GDC-0853” and the “RLM, percentage of remaining compound” value is 84.0%. Also, in data set [2], the “stability in mouse liver microsomes compared with reference GDC-0853” value is recorded as “better than that of the reference GDC-0853” and the “MLM, percentage of remaining compound” value was determined as 83.0%.
With `C[C@H]1CN(C2COC2)CCN1c1ccc(Nc2cc(-c3ccnc(-n4ccn5c6c(cc5c4=O)CC(F)(F)CC6)c3CO)cn(C)c2=O)nc1` [Compound 58], in data set [1], the “stability in rat liver microsomes compared with reference GDC-0853” value is “better than that of the reference GDC-0853” and the “RLM, percentage of remaining compound” value is listed as ~100%. Moreover, in data set [2], the “stability in mouse liver microsomes compared with reference GDC-0853” value is given as “better than that of the reference GDC-0853” and the “MLM, percentage of remaining compound” value was determined as 97.1%.
As to `C[C@H]1CN(C2COC2)CCN1c1ccc(Nc2cc(-c3ccnc(-n4ncn5c6c(cc5c4=O)CC(C)(C)C6)c3CO)cn(C)c2=O)nc1` [Compound 79], in data set [1], the “stability in rat liver microsomes compared with reference GDC-0853” value was “better than that of the reference GDC-0853” and the “RLM, percentage of remaining compound” value is given as ~100%. Moreover, in data set [2], the “stability in mouse liver microsomes compared with reference GDC-0853” value is listed as “better than that of the reference GDC-0853” and the “MLM, percentage of remaining compound” value is reported as ~100%.
As for `C[C@H]1CN(C2COC2)CCN1c1cnc(Nc2cc(-c3ccnc(-n4ccn5c6c(cc5c4=O)CC(C)(C)C6)c3CO)cn(C)c2=O)nc1` [Compound 44], in data set [1], the “stability in rat liver microsomes compared with reference GDC-0853” value was “better than that of the reference GDC-0853” and the “RLM, percentage of remaining compound” value is 97.1%. In data set [2], the “stability in mouse liver microsomes compared with reference GDC-0853” value is “better than that of the reference GDC-0853” and the “MLM, percentage of remaining compound” value came out at 93.1%.
